Measurements from patent US20170306090A1, “METHOD FOR MAKING POLYCARBONATE USING A LIQUID KETONE MIXTURE” (SABIC Global Technologies B.V., priority 2014, published 2017).

Test: Solubility of diphenyl carbonate in various ketones (gravimetric method)
[1] = Example 1, Temperature 70 °C, molar ratio of ketone to DPC 1:1
[2] = Example 2, Temperature 50 °C, molar ratio of ketone to DPC 1:1
[3] = Example 3, Temperature 50 °C, molar ratio of ketone to DPC 1.5:1
[4] = Example 4, Temperature 25 °C, molar ratio of ketone to DPC 1:1
[5] = Example 5, Temperature 25 °C, molar ratio of ketone to DPC 1.5:1
[6] = Example 6, Temperature 25 °C, molar ratio of ketone to DPC 2:1

Method: The solubility of diphenyl carbonate in various ketones was determined. Solubility was determined based on a gravimetric method.

CC(=O)CC(C)C [MIBK, methyl isobutyl ketone]
Solubility of diphenyl carbonate in the ketone [1]: Yes
Solubility of diphenyl carbonate in the ketone [2]: No
Solubility of diphenyl carbonate in the ketone [3]: Yes
Solubility of diphenyl carbonate in the ketone [4]: No
Solubility of diphenyl carbonate in the ketone [5]: No
Solubility of diphenyl carbonate in the ketone [6]: No

CCC(=O)CC [Diethyl ketone, diethyl ketone]
Solubility of diphenyl carbonate in the ketone [1]: Yes
Solubility of diphenyl carbonate in the ketone [2]: No
Solubility of diphenyl carbonate in the ketone [3]: Yes
Solubility of diphenyl carbonate in the ketone [4]: No
Solubility of diphenyl carbonate in the ketone [5]: No
Solubility of diphenyl carbonate in the ketone [6]: Yes
